Data as given in US12569482B2, “Methods and compositions for treating idiopathic pulmonary fibrosis” (priority 2018, dated 2026).

Tests used:
[1] = tested on: bleomycin-induced pulmonary fibrosis; assay: Bleomycin mouse model of pulmonary fibrosis, Example 3 (itraconazole inhalation, oral nintedanib); type: in vivo, ICR mice; settings: oral 60 mg/kg
Description: Iodine was used to disinfect the neck hair and skin. Later, the neck skin was cut to expose the trachea. 50 μL of PBS or bleomycin hydrochloride (Hisun Pfizer pharmaceutical Co., LTD, 17001711) in 0.9% sodium chloride solution ([…], i.e., […]) was quickly sprayed as mist into the trachea of mice from the Control Group or the other group with a high pressure syringe connected to a spraying nozzle. At the end, the skin was sutured and disinfected, and the mice were returned to the cages for recovery. On Day 5, the mice treated with bleomycin were divided into six groups at random (referred to as Group 2-7). […] For itraconazole inhalation, each mouse was placed in a 16×13×9 (length×width×height in cm) cabinet. Itraconazole preparation of 5, 15 or 50 mg/mL was sprayed into the cabinet with a compressed nebulizer. [table] Twenty-four hours after the last drug administration, the mice were sacrificed by dislocation of cervical vertebra. The trachea was isolated and intubated. The upper lobe of the left lung was ligated. […] The total number of leukocytes in the BALF was counted. The BALF was centrifuged at 2000 rpm/min for 10 min at 4° C. The supernatant was collected and stored at -80° C. for cytokine measurement, and the deposit was smeared on glass slides. After air drying at room temperature, the slides were subjected to Wright's-Giemsa staining. The number of neutrophils, lymphocytes and macrophages were counted under a microscope from a total of 200 cells for each slide. The upper left lung tissues were used for measuring the level of hydroxyproline, and the lower part was fixed in formalin for H&E staining and Masson's staining. The level of hydroxyproline in the lung tissues was measured using a Hydroxyproline Assay kit (Nanjing JianCheng Bioengineering Institute). The level of TGF-β1 in 100 μL BALF was determined using a mouse TGF-β1 ELISA kit (Beijing 4A Biotech Co., LTD), and the level of type I collagen (Col I) in 100 μL BALF was determined using a mouse Collagen Type I ELISA kit (CUSABIO BIOTEH). […] Then, the lung tissues were sectioned into 4 μm-thick sections for H&E staining and Masson's staining. H&E staining was used to observe the alveolar hyperemia, the infiltration or aggregation of neutrophils in the alveolar space or the vascular wall, and the thickening of alveolar septum or the formation of hyaline membranes. The degree of fibrosis in the lesions with H&E staining was observed under microscope and scored using a semi-quantitative Ashcroft scoring criteria below. Grade 0: Normal tracheal bronchoalveolar structures; Grade 1: Minimal fibrous thickening of alveolar or bronchiolar walls; Grade 3: Moderate thickening of walls without obvious damage to lung architecture; Grade 5: Increased fibrosis with definite damage to lung structure and formation of fibrous bands or small fibrous masses; Grade 7: Severe distortion of structure and large fibrous areas, with honeycomb lung placed in this category; Grade 8: Total fibrous obliteration. The severity of fibrosis between two odd numbers was considered as the corresponding even number. On the other hand, IOD value of positive Masson's staining site was measured by Image pro software for analysis. The data were tested for the homogeneity of variance. If the variance was homogenous (p>0.05), a single factor variance analysis was performed. The Dunnet test was performed for the differences between each dose group and the control group. If the variance was heterogenous (p 0.05), a non-parametric test was conducted, followed by the […] test for examining the differences between each dose group and the control group. The difference was considered significant when p<0.05.

[2] = tested on: bleomycin-induced lung fibrosis; assay: Bleomycin induced IPF mouse model, Example 2 (oral itraconazole, nintedanib or combination); type: in vivo, C57BL/6 mice
Description: The animals in the Control group were administered intratracheally with PBS at a dose of 2 mL/kg while the others were administered intratracheally with bleomycin (Cat #HY-17565, MCE) at a dose of 0.66 mg/kg. On Day 5, the mice with bleomycin treatment were divided into four groups at random (referred to as Group 2-5, n=10), and orally administered with vehicle (DMSO: PEG400=1:[…]), itraconazole ([…] Co. Ltd. prepared in DMSO/PEG400 with a final concentration of 1.5 mg/mL), nintedanib ([…] Co. […] The mice in the Control group was administered with vehicle (DMSO/PEG400) at a daily dose of 10 mL/kg. Mice body weights were measured and recorded on Day 1, 5, 12, 19 and 21.

[3] = compared to model group, 15 mg/kg, 60 mg/kg, 15+60 mg/kg p.o. daily

In the case of `COC(=O)c1ccc2c(c1)NC(=O)/C2=C(\Nc1ccc(N(C)C(=O)CN2CCN(C)CC2)cc1)c1ccccc1` [nintedanib], the “level of Col I in the BALF” value [1] is reported as “did not reduce”, the “number of lymphocytes and macrophages in the BALF” value [1] is reported as “had no effects” and the “pathological changes of lung tissues (H&E staining)” value [1] is reported as “significantly reduced the infiltration of neutrophils and macrophages and the thickening of alveolar septum”. For the same molecule, the “collagen deposition in the lung tissues (Masson's staining IOD)” value ([1]; p<0.001) was “significantly reduced the collagen deposition”, the “level of TGF-β1 in the BALF” value ([1]; p<0.001) was “significantly reduced” and the “level of hydroxyproline in the lung tissues” value ([1]; p<0.01) was “significantly reduced”. The “neutrophils in the BALF” value ([1]; p<0.01) was “significantly reduced”, the “semi-quantitative Ashcroft Score” value ([1]; p<0.01) was “significantly reduced the pulmonary fibrosis” and the “total number of leukocytes in the BALF” value ([1]; p<0.01) was “significantly reduced”. The BALF collagen level [2, 3] was “reduced”, the BALF neutrophil number [2, 3] was “reduced” and the lung inflammation area [2, 3] was “significantly reduced”. For the same molecule, the “modified Ashcroft score” value [2, 3] was “significantly reduced”, the α-SMA staining area [2, 3] was “significantly reduced” and the mice body weight ([2]; itraconazole 15 mg/kg, nintedanib 60 mg/kg, 15+60 mg/kg p.o. daily Day 5-21) was “inhibited bleomycin-induced body weight reduction to some extent”.
